For assay [1], the system named is IL-2 production in Jurkat cell (ATCC). Nature of the assay: Jurkat IL-2 Production Assay. Conditions: Jurkat cells, 18-20 h incubation, serum/stimulant variant (1% FBS/PHA or 30% FBS/PMA+ionomycin) not given. In kind it is cell-based. The procedure: Jurkat IL-2 Production Assay Cell: Jurkat cell (ATCC) was grown in RPMI 1640 with 10% FBS and 1% penicillin/streptomycin. The cell density was kept at 1.2˜1.8×10^6/mL in culture flask before seeding into culture plate, and the cell density in the plate was 0.5×10^6/2004/well. Culture Media: RPMI 1640 with 1% FBS or 30% FBS for high serum assay. Test Compound: Serial dilution was done in 100% DMSO, and intermediate dilution was done with RPMI 1640 medium with 1% FBS. The DMSO final concentration in culture well was 0.25%. Stimulant: PHA (Sigma#L9017-10MG) was used for the assay with 1% FBS in culture medium, and added after 10 minutes exposure of cell to compound/DMSO. The PHA final concentration in culture well was 5 μg/mL. PMA (Sigma# P-8139 5MG)/Ionomycin (Sigma# I0634-5MG) was used for the assay with 30% FBS in culture medium, and added at same time point as the 1% FBS culture assay. The final concentration of PMA was 50 ng/mL, and Ionomycin final concentration was 500 ng/mL. Incubation: At 37° C. with 5% CO2 and 95% humidity for 18 h˜20 h. IC50: IC50 was calculated with the data analysis software XLfit4, General Pharmacology model 251.

The test system of assay [2] is T cell IL-2 production in human whole blood. Nature of the assay: Human Whole Blood Assay (inhibition of T cell IL-2 production). Type of assay: cell-based. Conditions: 10 μM Thapsigargin overnight, plasma IL-2 by AlphaLISA, read-out: HWB. The method, then:
Inhibition of T cell IL-2 production CRAC compounds were tested in human whole blood from normal donors. 200 μl of human whole blood was aliquoted into each well of a round bottom 96 well plate. Concentration-response curves were generated for test compounds and CsA (as controls) by performing serial dilutions of the compounds and incubating each concentration in a single well for 30 min (experiment was performed in triplicate). Following incubation, the blood was stimulated with 10 μM Thapsigargin (SIGMA) overnight at 37° C. IL-2 concentrations in the plasma were determined by AlphaLISA IL-2 assay (Perkin Elmer). Data analysis was performed using GraphPad PRISMS.

Where two headings read alike, the source gives them in different places.

For `Cn1nc(-c2cccnc2)nc1-c1ccc2c(c1)OCC(c1c(F)cccc1F)N2` (stereo not shown) [Example 9, 3-(2,6-Difluoro-phenyl)-7-(2-methyl-5-pyridin-3-yl-2H-[1,2,4]triazol-3-yl)-3,4-dihydro-2H-benzo[1,4]oxazine], the IC50 in assay [1] (Homo sapiens) stood at 310 nM.
In assay [1] (Homo sapiens), `Cc1sc(-c2cnccn2)nc1-c1ccc2c(c1)OCC(c1c(F)cccc1F)N2` (stereo not shown) [Example 15, 3-(2,6-difluorophenyl)-7-(5-methyl-2-(pyrazin-2-yl)thiazol-4-yl)-3,4-dihydro-2H-benzo[b][1,4]oxazine] registered an IC50 of 60 nM.
For the compound `Cc1sc(-c2ccccn2)nc1-c1ccc2c(c1)OCC(c1c(F)cccc1Cl)N2` (stereo not shown) [Example 31, 3-(2-Chloro-6-fluoro-phenyl)-7-(5-methyl-2-pyridin-2-yl-thiazol-4-yl)-3,4-dihydro-2H-benzo[1,4]oxazine], the IC50 in assay [2] (T-cell) worked out at 3550 nM; in assay [1] (Homo sapiens) it was 140 nM.
As to `CCc1sc(-c2ncco2)nc1-c1ccc2c(c1)OCC(c1c(F)cccc1F)N2` (stereo not shown) [Example 19, 3-(2,6-Difluoro-phenyl)-7-(5-ethyl-2-oxazol-2-yl-thiazol-4-yl)-3,4-dihydro-2H-benzo[1,4]oxazine], in assay [2] (T-cell), the IC50 was determined as 650 nM.
In turn, `CCS(=O)(=O)c1cc(C)c(-c2ccc3c(c2)OCC(c2c(F)cccc2F)N3)cn1` (stereo not shown) [Example 22, 3-(2,6-difluorophenyl)-7-(6-(ethylsulfonyl)-4-methylpyridin-3-yl)-3,4-dihydro-2H-benzo[b][1,4]oxazine] had an IC50 in assay [1] (Homo sapiens) of 90 nM.
As for `Cc1ccc(C(F)(F)F)cc1-c1ccc2c(c1)OCC(c1c(F)cccc1F)N2` (stereo not shown) [Example 4, 3-(2,6-difluoro-phenyl)-7-(2-methyl-5-trifluoromethyl-phenyl)-3,4-dihydro-2H-benzo[1,4]oxazine], the values for the IC50 in assay [2] (T-cell) and in assay [1] (Homo sapiens) were 3220 nM and 100 nM, respectively.
In assay [1] (Homo sapiens), `Cc1cc(Cl)ncc1-c1ccc2c(c1)OCC(c1c(F)cccc1F)N2` (stereo not shown) [Example 23, 7-(6-Chloro-4-methyl-pyridin-3-yl)-3-(2,6-difluoro-phenyl)-3,4-dihydro-2H-benzo[1,4]oxazine] registered an IC50 of 320 nM.
Take `Cc1cc(-c2nnn(C)n2)ncc1-c1ccc2c(c1)OCC(c1c(F)cccc1F)N2` (stereo not shown) [Example 27, 3-(2,6-difluorophenyl)-7-(4-methyl-6-(2-methyl-2H-tetrazol-5-yl)pyridin-3-yl)-3,4-dihydro-2H-benzo[b][1,4]oxazine]: the IC50 in assay [1] (Homo sapiens) stood at 670 nM.
In assay [1], “(S)-3-(2,6-Difluoro-phenyl)-7-(2-methyl-4-trifluoromethyl-phenyl)-3,4-dihydro-2H-benzo[1,4]oxazine or (R)-3-(2,6-Difluoro-phenyl)-7-(2-methyl-4-trifluoromethyl-phenyl)-3,4-dihydro-2H-benzo[1,4]oxazine [Example 3]” showed an IC50 of 350 nM.
`Cn1nc(C(F)(F)F)cc1-c1ccc2c(c1)OCC(c1ccccc1Cl)N2` (stereo not shown) [Example 34, 3-(2-chlorophenyl)-7-(1-methyl-3-(trifluoromethyl)-1H-pyrazol-5-yl)-3,4-dihydro-2H-benzo[b][1,4]oxazine] yielded an IC50 in assay [1] (Homo sapiens) of 350 nM.
`CCn1nc(-c2cnccn2)cc1-c1ccc2c(c1)OCC(c1c(F)cccc1F)N2` (stereo not shown) [Example 8, 3-(2,6-Difluoro-phenyl)-7-(2-ethyl-5-pyrazin-2-yl-2H-pyrazol-3-yl)-3,4-dihydro-2H-benzo[1,4]oxazine] registered an IC50 in assay [1] (Homo sapiens) of 110 nM.
`Cc1sc(-c2cccnc2)nc1-c1ccc2c(c1)OCC(c1ccccc1Cl)N2` (stereo not shown) [Example 36, 3-(2-chlorophenyl)-7-(5-methyl-2-(pyridin-3-yl)thiazol-4-yl)-3,4-dihydro-2H-benzo[b][1,4]oxazine] gave an IC50 in assay [1] (Homo sapiens) of 90 nM.
Take `CCc1sc(-c2ccccn2)nc1-c1ccc2c(c1)OCC(c1c(F)cccc1F)N2` (stereo not shown) [Example 13, 3-(2,6-Difluoro-phenyl)-7-(5-ethyl-2-pyridin-2-yl-thiazol-4-yl)-3,4-dihydro-2H-benzo[1,4]oxazine]: the IC50 in assay [2] (T-cell) worked out at 1940 nM.
On to `Cc1ncc(-c2cc(C)c(-c3ccc4c(c3)OCC(c3c(F)cccc3F)N4)cn2)s1` (stereo not shown) [Example 26, 3-(2,6-difluorophenyl)-7-(4-methyl-6-(2-methylthiazol-5-yl)pyridin-3-yl)-3,4-dihydro-2H-benzo[b][1,4]oxazine], for which the IC50 in assay [1] (Homo sapiens) amounted to 210 nM.
`CCc1sc(-c2cnccn2)nc1-c1ccc2c(c1)OCC(c1ccccc1Cl)N2` (stereo not shown) [Example 37, 3-(2-chlorophenyl)-7-(5-ethyl-2-(pyrazin-2-yl)thiazol-4-yl)-3,4-dihydro-2H-benzo[b][1,4]oxazine]: the IC50 in assay [1] (Homo sapiens) is 70 nM.
In the case of `Cc1cc(-c2cnc(N)nc2)ncc1-c1ccc2c(c1)OCC(c1c(F)cccc1F)N2` (stereo not shown) [Example 25, 5-(5-(3-(2,6-difluorophenyl)-3,4-dihydro-2H-benzo[b][1,4]oxazin-7-yl)-4-methylpyridin-2-yl)pyrimidin-2-amine], the IC50 in assay [1] (Homo sapiens) came to 660 nM.
Turning to `CCc1cc(-c2nc(-c3ccc4c(c3)OCC(c3c(F)cccc3F)N4)c(CC)s2)ccn1` (stereo not shown) [Example 18, 3-(2,6-Difluoro-phenyl)-7-[5-ethyl-2-(2-ethyl-pyridin-4-yl)-thiazol-4-yl]-3,4-dihydro-2H-benzo[1,4]oxazine], the IC50 in assay [2] (T-cell) was 6150 nM.
In the case of “(R)-3-(2,6-Difluoro-phenyl)-7-(2-methyl-4-trifluoromethyl-phenyl)-3,4-dihydro-2H-benzo[1,4]oxazine or (S)-3-(2,6-Difluoro-phenyl)-7-(2-methyl-4-trifluoromethyl-phenyl)-3,4-dihydro-2H-benzo[1,4]oxazine [Example 2]”, the figures for the IC50 in assay [2] and in assay [1] were 3160 nM and 80 nM, respectively.
Take `COc1cc(C)c(-c2ccc3c(c2)OCC(c2c(F)cccc2Cl)N3)cn1` (stereo not shown) [Example 33, 3-(2-Chloro-6-fluoro-phenyl)-7-(6-methoxy-4-methyl-pyridin-3-yl)-3,4-dihydro-2H-benzo[1,4]oxazine]: the IC50 in assay [1] (Homo sapiens) amounted to 380 nM.
Consider `Cn1nc(C(F)(F)F)cc1-c1ccc2c(c1)OCC(c1c(F)cccc1F)N2` (stereo not shown) [Example 5, 3-(2,6-Difluoro-phenyl)-7-(2-methyl-5-trifluoromethyl-2H-pyrazol-3-yl)-3,4-dihydro-2H-benzo[1,4]oxazine], for which the IC50 stood at 910 nM in assay [2] (T-cell) and 100 nM in assay [1] (Homo sapiens).
Take `Cc1cc(C(F)(F)F)ccc1-c1ccc2c(c1)OCC(c1c(F)cccc1F)N2` (stereo not shown) [Example 1, 3-(2,6-Difluoro-phenyl)-7-(2-methyl-4-trifluoromethyl-phenyl)-3,4-dihydro-2H-benzo[1,4]oxazine]: the IC50 in assay [1] (Homo sapiens) was 120 nM.
On to `Cc1sc(-c2ccccn2)nc1-c1ccc2c(c1)OCC(c1c(F)cccc1F)N2` (stereo not shown) [Example 11, 3-(2,6-Difluoro-phenyl)-7-(5-methyl-2-pyridin-2-yl-thiazol-4-yl)-3,4-dihydro-2H-benzo[1,4]oxazine], for which the IC50 in assay [2] (T-cell) is 1820 nM; in assay [1] (Homo sapiens), 120 nM.
Take `CCn1nc(-c2cccnc2)nc1-c1ccc2c(c1)OCC(c1c(F)cccc1F)N2` (stereo not shown) [Example 10, 3-(2,6-Difluoro-phenyl)-7-(2-ethyl-5-pyridin-3-yl-2H-[1,2,4]triazol-3-yl)-3,4-dihydro-2H-benzo[1,4]oxazine]: the IC50 in assay [2] (T-cell) stood at 510 nM; in assay [1] (Homo sapiens), 90 nM.
Regarding `Cc1ccc(-c2ncco2)cc1-c1ccc2c(c1)OCC(c1c(F)cccc1F)N2` (stereo not shown) [Example 28, 3-(2,6-Difluoro-phenyl)-7-(2-methyl-5-oxazol-2-yl-phenyl)-3,4-dihydro-2H-benzo[1,4]oxazine], the IC50 in assay [2] (T-cell) was 1000 nM.
Consider `COc1cc(C)c(-c2ccc3c(c2)OCC(c2ccccc2Cl)N3)cn1` (stereo not shown) [Example 35, 3-(2-chlorophenyl)-7-(6-methoxy-4-methylpyridin-3-yl)-3,4-dihydro-2H-benzo[b][1,4]oxazine], for which the IC50 in assay [1] (Homo sapiens) is 730 nM.
`COc1cc(C)c(-c2ccc3c(c2)OCC(c2c(F)cccc2F)N3)cn1` (stereo not shown) [Example 21, 3-(2,6-Difluoro-phenyl)-7-(6-methoxy-4-methyl-pyridin-3-yl)-3,4-dihydro-2H-benzo[1,4]oxazine]: in assay [1] (Homo sapiens), the IC50 was 280 nM.
The compound `Cc1cc(-c2ncco2)ncc1-c1ccc2c(c1)OCC(c1c(F)cccc1F)N2` (stereo not shown) [Example 24, 3-(2,6-Difluoro-phenyl)-7-(4-methyl-6-oxazol-2-yl-pyridin-3-yl)-3,4-dihydro-2H-benzo[1,4]oxazine] returned an IC50 in assay [1] (Homo sapiens) of 340 nM.
For `Cc1ccc(C(F)(F)F)cc1-c1ccc2c(c1)OCC(c1c(F)cccc1Cl)N2` (stereo not shown) [Example 30, 3-(2-Chloro-6-fluoro-phenyl)-7-(2-methyl-5-trifluoromethyl-phenyl)-3,4-dihydro-2H-benzo[1,4]oxazine], in assay [1] (Homo sapiens), the IC50 worked out at 220 nM.

Source of the values: US20130090333A1, “BENZOXAZINE DERIVATIVES AS CRAC MODULATORS” (Hoffmann-La Roche Inc., priority 2011, published 2013).
